This note sets out measurements from patent US5475132A, “Antifungal agents based on amides containing a phenyl group” (Rhone-Poulenc Agrochimie, priority 1988, dated 1995).

For the experiment, the system named is Phytophthora citrophthora. Kind of experiment: Example B3: action on phytopathogenic soil fungi, growth on agar in Petri dishes. It is filed as cell-based. The following applies: 120 h, 30 ppm, agar medium, 22° C., 5 days, read-out: inhibition of the development of the fungus.

Regarding `COc1ccc(-c2cc(-c3ccccc3)ccc2C(=O)N2CCOCC2)cc1OC` [Compound 202], the inhibition at 30 ppm was at least 80%.
Under `COc1ccc(-c2cc(-c3ccc(C)cc3)ccc2C(=O)N2CCOCC2)cc1OC` [Compound 203] stands at least 80%.
On to `COCCN(C)C(=O)c1ccc(Br)cc1-c1ccc(OC)c(OC)c1` [Compound 204], for which the inhibition at 30 ppm is at least 80%.
Under `CCN(CC)C(=O)c1ccc(Br)cc1-c1ccc(OC)c(OC)c1` [Compound 205] stands at least 80%.
Under `CCN(C)C(=O)c1ccc(Br)cc1-c1ccc(OC)c(OC)c1` [Compound 206] stands at least 80%; under `COc1ccc(-c2cc(Cl)ccc2C(=O)N2CCOCC2)cc1OC` [Compound 208], at least 80%.
Under `CCN(C)C(=O)c1ccc(Cl)cc1-c1ccc(OC)c(OC)c1` [Compound 209] stands at least 80%; under `COCCN(C)C(=O)c1ccc(Cl)cc1-c1ccc(OC)c(OC)c1` [Compound 210], at least 80%.
As to `CCN(CC)C(=O)c1ccc(Cl)cc1-c1ccc(OC)c(OC)c1` [Compound 211], the inhibition at 30 ppm was at least 80%.
Under `C=C(C)c1ccc(C(=O)N(C)CC)c(-c2ccc(OC)c(OC)c2)c1` [Compound 212] stands at least 80%; under `C=C(C)c1ccc(C(=O)N(C)CCOC)c(-c2ccc(OC)c(OC)c2)c1` [Compound 213], at least 80%; under `C=C(C)c1ccc(C(=O)N(CC)CC)c(-c2ccc(OC)c(OC)c2)c1` [Compound 214], at least 80%.
Under `CCN(C)C(=O)c1ccc(-c2ccc(C)cc2)cc1-c1ccc(OC)c(OC)c1` [Compound 215] stands at least 80%.
In the case of `COc1ccc(-c2cc(-c3ccc(C)cc3)ccc2C(=O)N(C)CCO)cc1OC` [Compound 216], the inhibition at 30 ppm is at least 80%.
For `COc1ccc(-c2cc(-c3ccc(C)cc3)ccc2C(=O)N(C)C)cc1OC` [Compound 217] the value was at least 80%; for `COc1ccc(-c2cc(Br)ccc2C(=O)N2CCOCC2)cc1OC` [Compound 222], at least 80%.
Under `COc1ccc(-c2c(Br)cccc2C(=O)N2CCOCC2)cc1OC` [Compound 223] stands at least 80%.
For `O=C(c1ccc(Br)cc1-c1ccc2c(c1)OCO2)N1CCOCC1` [Compound 224] the value was at least 80%; for `CCN(C)C(=O)c1ccc(-c2ccc(F)cc2)cc1-c1ccc2c(c1)OCO2` [Compound 228], at least 80%.
For `O=C(c1ccc(-c2ccc(F)cc2)cc1-c1ccc2c(c1)OCO2)N1CCOCC1` [Compound 229], the inhibition at 30 ppm was at least 80%.
Under `CCN(C)C(=O)c1ccc(-c2ccc(C)cc2)cc1-c1ccc2c(c1)OCO2` [Compound 230] stands at least 80%.
As for `Cc1ccc(-c2ccc(C(=O)N3CCOCC3)c(-c3ccc4c(c3)OCO4)c2)cc1` [Compound 231], the inhibition at 30 ppm was at least 80%.
Under `COc1ccc(-c2ccc(C(=O)N3CCOCC3)c(-c3ccc(OC)c(OC)c3)c2)cc1OC` [Compound 234] stands at least 80%.
For `COc1ccc(-c2cc(C=C(C)C)ccc2C(=O)N2CCOCC2)cc1OC` [Compound 235] the value was at least 80%.
Under `C=C(C)c1ccc(C(=O)N2CCOCC2)c(-c2ccc(OC)c(OC)c2)c1` [Compound 236] stands at least 80%.
Regarding `COc1ccc(-c2cc(-c3ccc(Cl)cc3)ccc2C(=O)N2CCOCC2)cc1OC` [Compound 237], the inhibition at 30 ppm is at least 80%.
As to `COc1ccc(-c2cc(-c3ccsc3)ccc2C(=O)N2CCOCC2)cc1OC` [Compound 238], the inhibition at 30 ppm was at least 80%.
For `COc1ccc(-c2cc(-c3ccc4c(c3)OCO4)ccc2C(=O)N2CCOCC2)cc1OC` [Compound 239] the value was at least 80%; for `COc1ccc(-c2nc(-c3ccccc3)ccc2C(=O)N2CCOCC2)cc1OC` [Compound 301, N-[2-(3,4-dimathoxyphenyl)-6-phenylnicotinoyl]morpholine], at least 80%; for `COc1ccc(-c2nc(-c3ccc(Cl)cc3)ccc2C(=O)N2CCOCC2)cc1OC` [Compound 345], at least 80%.
Under `CCN(C)C(=O)c1ccc(-c2ccc(Cl)cc2)nc1-c1ccc(OC)c(OC)c1` [Compound 347] stands at least 80%; under `COc1ccc(-c2nc(-c3ccc(F)cc3)ccc2C(=O)N2CCOCC2)cc1OC` [Compound 349], at least 80%.
For `CCN(C)C(=O)c1ccc(-c2ccc(F)cc2)nc1-c1ccc(OC)c(OC)c1` [Compound 350] the value was at least 80%.
For the compound `COCCN(C)C(=O)c1ccc(-c2ccc(F)cc2)nc1-c1ccc(OC)c(OC)c1` [Compound 353], the inhibition at 30 ppm is at least 80%.
Turning to `COCCN(C)C(=O)c1ccc(-c2ccccc2)nc1-c1ccc(OC)c(OC)c1` [Compound 354], the inhibition at 30 ppm is at least 80%.
For `COc1ccc(-c2nc(-c3ccc(C4CC4(Cl)Cl)cc3)ccc2C(=O)N2CCOCC2)cc1OC` (centres unmarked) [Compound 355] the value was at least 80%.
Under `COc1ccc(-c2nc(-c3ccc(C(C)C)cc3)ccc2C(=O)N2CCOCC2)cc1OC` [Compound 356] stands at least 80%.
For `C=CCN(C)C(=O)c1ccc(-c2ccccc2)nc1-c1ccc(OC)c(OC)c1` [Compound 359] the value was at least 80%.
For the compound `COc1ccc(-c2nc(-c3ccccc3)ccc2C(=O)N(C)C(C)C)cc1OC` [Compound 360], the inhibition at 30 ppm was at least 80%.
`COc1ccc(-c2nc(-c3ccc(Cl)cc3)ccc2C(=O)N(C)CC#N)cc1OC` [Compound 363]: the inhibition at 30 ppm was at least 80%.
For `CCN(CC)C(=O)c1ccc(-c2ccc(Cl)cc2)nc1-c1ccc(OC)c(OC)c1` [Compound 364] the value was at least 80%.
Under `CCCN(C)C(=O)c1ccc(-c2ccccc2)nc1-c1ccc(OC)c(OC)c1` [Compound 365] stands at least 80%.
As for `COc1ccc(-c2nc(-c3ccc(Br)cc3)ccc2C(=O)N(C)CCOC(C)=O)cc1OC` [Compound 366], the inhibition at 30 ppm was at least 80%.
For `COc1ccc(-c2nc(-c3ccc(Cl)cc3)c(C)cc2C(=O)N2CCOCC2)cc1OC` [Compound 367] the value was at least 80%.
For `COc1ccc(-c2nc(-c3ccc(F)cc3)c(C)cc2C(=O)N2CCOCC2)cc1OC` [Compound 368] the value was at least 80%; for `CCN(C)C(=O)c1ccc(-c2ccccc2)nc1-c1ccc(OC)c(OC)c1` [Compound 369], at least 80%; for `COc1ccc(-c2nc(-c3ccccc3)ccc2C(=O)N(C)C)cc1OC` [Compound 370], at least 80%.
For `COc1ccc(-c2nc(-c3ccc(Cl)cc3)ccc2C(=O)N2CCCC2)cc1OC` [Compound 373] the value was at least 80%; for `COc1ccc(-c2nc(-c3ccc(Cl)cc3)ccc2C(=O)N2CCCCC2)cc1OC` [Compound 376], at least 80%.
Consider `COc1ccc(-c2nc(-c3ccc(Cl)cc3)ccc2C(=O)N2CCC(O)CC2)cc1OC` [Compound 377], for which the inhibition at 30 ppm is at least 80%.
For `COc1ccc(-c2nc(-c3ccc(Cl)cc3)ccc2C(=O)N(C)Cc2ccco2)cc1OC` [Compound 378] the value was at least 80%; for `COCCN(C)C(=O)c1ccc(-c2ccc(Cl)cc2)nc1-c1ccc(OC)c(OC)c1` [Compound 379], at least 80%.
With `COc1ccc(-c2nc(-c3ccc(Br)cc3)ccc2C(=O)N(C)CCO)cc1OC` [Compound 380], the inhibition at 30 ppm is at least 80%.
Under `COc1ccc(-c2nc(-c3ccc(Cl)cc3)ccc2C(=O)N(C)CC2CCCO2)cc1OC` (centres unmarked) [Compound 381] stands at least 80%; under `COc1ccc(-c2nc(-c3ccc(C#N)cc3)ccc2C(=O)N2CCOCC2)cc1OC` [Compound 382], at least 80%.
For `COc1ccc(-c2nc(-c3ccc(Cl)cc3)ccc2C(=O)N(C)CCO)cc1OC` [Compound 383] the value was at least 80%.
For `COc1ccc(-c2nc(-c3ccc(C)cc3)ccc2C(=O)N2CCOCC2)cc1OC` [Compound 384] the value was at least 80%.
For `COc1ccc(-c2nc(-c3ccc(Br)cc3)ccc2C(=O)N2CCOCC2)cc1OC` [Compound 385], the inhibition at 30 ppm was at least 80%.
For `C=CCN(C)C(=O)c1ccc(-c2ccc(Cl)cc2)nc1-c1ccc(OC)c(OC)c1` [Compound 386] the value was at least 80%; for `CCN(CC)C(=O)c1ccc(-c2ccccc2)nc1-c1ccc(OC)c(OC)c1` [Compound 388], at least 80%; for `COc1ccc(-c2ccc(C(=O)N3CCOCC3)c(-c3ccc(OC)c(OC)c3)n2)cc1` [Compound 389], at least 80%.
As to `CCN(C)C(=O)c1ccc(-c2ccc(Br)cc2)nc1-c1ccc(OC)c(OC)c1` [Compound 390], the inhibition at 30 ppm was at least 80%.
Under `COc1ccc(-c2nc(-c3ccccc3C)ccc2C(=O)N2CCOCC2)cc1OC` [Compound 391] stands at least 80%; under `COc1ccc(-c2nc(-c3ccccc3Cl)ccc2C(=O)N2CCOCC2)cc1OC` [Compound 392], at least 80%.
For `COCCN(C)C(=O)c1ccc(-c2ccc(Br)cc2)nc1-c1ccc(OC)c(OC)c1` [Compound 393] the value was at least 80%; for `COc1ccc(-c2nc(-c3ccc(Cl)cc3)ccc2C(=O)N(C)OC)cc1OC` [Compound 394], at least 80%; for `COc1ccc(-c2nc(-c3ccccc3)ccc2C(=O)N(C)CCO)cc1OC` [Compound 395], at least 80%.
Under `COc1ccc(-c2nc(-c3ccccc3)ccc2C(=O)N(C)CCOC(C)=O)cc1OC` [Compound 396] stands at least 80%; under `COc1ccc(-c2nc(-c3ccc(Cl)cc3)ccc2C(=O)N(C)CCOC(C)=O)cc1OC` [Compound 397], at least 80%; under `COc1ccc(-c2nc(-c3ccc(Cl)cc3)ncc2C(=O)N2CCOCC2)cc1OC` [Compound 407, 2-(4-Chlorophenyl)-4-(3,4-dimethoxyphenyl)-5-morpholinocarbonylpyrimidine], at least 80%.
`COc1ccc(-c2nc(-c3ccccc3)ncc2C(=O)N2CCOCC2)cc1OC` [Compound 414]: the inhibition at 30 ppm was at least 80%.

A word on the inhibition: it is how much of the control response was suppressed.
